According to article PMC7137270, “Determination of parecoxib and valdecoxib in rat plasma by UPLC-MS/MS and its application to pharmacokinetics studies” (BMC Pharmacology & Toxicology, 2020):
Each block holds one compound with its values, some of them ahead of it.

Experiments:
[1] = Stability of analytes in rat plasma (short-term, long-term, freeze/thaw); type: in vitro ADME; conditions: n = 6; for Freeze/thaw (−20 °C to room temperature) RE: three cycles
Description: The stability of the samples (including QC and IS) in rat plasma was determined by placing samples (n = 6) in three settings. Of those settings, the short-term stability was determined via leaving the samples at room temperature for 24 h. For long-term stability evaluation, the samples went through 3 weeks of storage at − 20 °C before measurement. The stability of samples after freeze-thaw treatment was assessed by performing freeze/thaw cycles on each sample three times prior to analysis. The fresh samples were prepared as a negative control. The acceptable bias was considered great stability when it was within ±15%. […]

[2] = design: method as in PMID 11519767; conditions: control of acute pain, specific dose of PCX; cited from earlier work
[3] = Pharmacokinetic study in rats after sublingual vein administration of parecoxib; type: in vivo; conditions: male, Sprague Dawley, rat plasma, sublingual vein administration of 5 mg/kg PCX, n = 6; for MRT last: read-out: MRT(0-t); for MRT inf: read-out: MRT(0-∞)
Description: The average weight range of 200–220 g male Sprague Dawley (SD) was obtained from the laboratory animal center of the Wenzhou Medical University (Wenzhou, China, License No. SCXK [ZJ] 2005–0019). Rats stayed in cages and freely got food and water under a stable temperature range of 24–26 °C and a controllable 12 h light/dark cycle apparatus. Animal protocols were approved by the Institutional animal experimentation Committee of the Wenzhou Medical University. A total of 12 SD rats were separated into two isolated groups, including the experimental group (n = 6) and the control group (n = 6). Fasting was carried out for 12 h before assays, and only water was freely accessible. The rats were treated with […] PCX intravenously, which was equivalent to 56 mg for an individual of 70 kg human body weight (regular range in the clinic is from 40 to 80 mg). 0.3 ml of blood samples were collected and stabilized in heparinized tubes at each given time point (0, 0.083, 0.167, 0.25, 0.5, 0.75, 1, 2, 3, 4, 6, 8, 10, 12 and 24 h). The plasma samples were separated through centrifugation at 3000 r/min for 10 min and carefully collected the supernatant and stored at − 20 °C before analysis. All pharmacokinetic data were analyzed by the DAS (Drug and Statistics) software. All rats were sacrificed by CO2 inhalation.
In the clinic, the recommended dose of PCX was 40 mg per patient, i.m. or i.v., and the total daily dose was not more than 80 mg. In the present study, a dose of 5 mg/kg PCX was injected to rats by i.v., which was equivalent to 56 mg for an individual of 70 kg body weight (range of 40–80 mg). The UPLC-MS/MS has effectively monitored the pharmacokinetic changes after administration of […] PCX. Further, the pharmacokinetic parameters were figured out by using the DAS 3.0 software.

[4] = design: method as in PMID 29843006; conditions: cited from earlier work
plasma proteins = conditions: cited from earlier work

Long-term (−20 °C, 3 weeks) RE ([1]; 100 ng/mL): 14.2%
Short-term (room temperature, 24 h) RE ([1]; 100 ng/mL): 13.0%
Freeze/thaw (−20 °C to room temperature) RE ([1]; 100 ng/mL): 14.9%
Long-term (−20 °C, 3 weeks) RE ([1]; 800 ng/mL): 12.7%
Short-term (room temperature, 24 h) RE ([1]; 800 ng/mL): 10.2%
Freeze/thaw (−20 °C to room temperature) RE ([1]; 800 ng/mL): 14.2%
Long-term (−20 °C, 3 weeks) RE ([1]; 8000 ng/mL): 14.3%
Short-term (room temperature, 24 h) RE ([1]; 8000 ng/mL): −10.5%
Freeze/thaw (−20 °C to room temperature) RE ([1]; 8000 ng/mL): −7.9%
AUC(0-inf) [3]: 2.11 ± 0.283 µg·h/mL
AUC(0-t) [3]: 2.11 ± 0.282 µg·h/mL
Cmax [3]: 5.07 ± 1.21 µg/mL
Tmax [3]: 0.1 h
clearance [3]: 2.4 L/h/kg
half-life [3]: 1.4 ± 0.5 h
MRT last [3]: 0.4 ± 0.1 h
MRT inf [3]: 0.4 ± 0.1 h
SMILES: CCC(=O)NS(=O)(=O)c1ccc(-c2c(-c3ccccc3)noc2C)cc1 [Parecoxib]
onset of analgesia [2]: 7 to 14 min
time to peak analgesic effect [2]: ≤ 2 h

Long-term (−20 °C, 3 weeks) RE ([1]; 5 ng/mL): −1.4%
Short-term (room temperature, 24 h) RE ([1]; 5 ng/mL): −6.7%
Freeze/thaw (−20 °C to room temperature) RE ([1]; 5 ng/mL): 5.2%
Long-term (−20 °C, 3 weeks) RE ([1]; 40 ng/mL): 13.2%
Short-term (room temperature, 24 h) RE ([1]; 40 ng/mL): 12%
Freeze/thaw (−20 °C to room temperature) RE ([1]; 40 ng/mL): 14.2%
Long-term (−20 °C, 3 weeks) RE ([1]; 400 ng/mL): 3.2%
Short-term (room temperature, 24 h) RE ([1]; 400 ng/mL): 3.2%
Freeze/thaw (−20 °C to room temperature) RE ([1]; 400 ng/mL): 9.5%
AUC(0-inf) [3]: 4.37 ± 1.53 µg·h/mL
AUC(0-t) [3]: 4.19 ± 1.59 µg·h/mL
Cmax [3]: 0.701 ± 0.0926 µg/mL
Tmax [3]: 0.8 ± 0.2 h
clearance [3]: 1.2 L/h/kg
half-life [3]: 3.1 ± 1.1 h
MRT last [3]: 4.1 ± 1 h
MRT inf [3]: 4.8 ± 1.1 h
SMILES: Cc1onc(-c2ccccc2)c1-c1ccc(S(N)(=O)=O)cc1 [Valdecoxib]
fraction of VCX in the circulation metabolized to hydroxylated VCX [4]: approximately 10%
bound to plasma proteins (plasma proteins): 98%

Long-term (−20 °C, 3 weeks) RE ([1]; 200 ng/mL): −1.3%
Short-term (room temperature, 24 h) RE ([1]; 200 ng/mL): 7.5%
Freeze/thaw (−20 °C to room temperature) RE ([1]; 200 ng/mL): 5.8%
SMILES: Cc1ccc(-c2cc(C(F)(F)F)nn2-c2ccc(S(N)(=O)=O)cc2)cc1 [Celecoxib]
